Measurements reported in US8557823B2, “Family of PFKFB3 inhibitors with anti-neoplastic activities” (Advanced Cancer Therapeutics, LLC, priority 2007, dated 2013).

Key:
[1] = test system: K562 leukemia cells; experiment: In vitro growth inhibition, K562; assay type: cell-based, human; settings: Homo sapiens, 50% of vehicle control cell growth
Description: (§1) The K562, HL-60, MDA-MB231, and melanoma (CRL-11174) human cancer cell lines were purchased from ATCC (American Tissue Type Culture Collection, Manassas, Va., United States of America). HeLa, A549, Lewis Lung Carcinoma, MDA-MB231, and melanoma cells were grown in Dulbecco's Modified Eagle Medium (DMEM) (Hyclone, Logan, Utah, United States of America) supplemented with 10% fetal bovine serum (Hyclone, Logan, Utah, United States of America) and 50 μg/mL gentamicin sulfate (Invitrogen, Carlsbad, Calif., United States of America). The HL-60, K562, and Jurkat cell lines were grown in RPMI-1640 medium (Hyclone, Logan, Utah, United States of America) supplemented with 10% fetal bovine serum and 50 μg/mL gentamicin sulfate. […]
(§2) Cells were collected 48 hours post-treatment, and cell number and viability were determined by trypan blue exclusion. […]

[2] = test system: A549 lung carcinoma cells; experiment: In vitro growth inhibition, A549; assay type: cell-based; settings: human A549
Description: as §1, §2

[3] = test system: HeLa cervical cancer cells; experiment: In vitro growth inhibition, HeLa; assay type: cell-based; settings: Homo sapiens
Description: as §1, §2

[4] = test system: melanoma (CRL-11174) cells; experiment: In vitro growth inhibition, melanoma line; assay type: cell-based; settings: Homo sapiens
Description: as §1, §2

[5] = test system: PFKFB3+/- ht/LT/ras fibroblasts; experiment: Growth inhibition of PFKFB3 haplo-insufficient transformed fibroblasts; assay type: cell-based, mice; settings: Mus musculus, Fibroblast, 48 hours
Excerpt: FIG. 6B is a bar graph showing the anti-proliferative effects of 3PO in fibroblasts from wild-type (+/+) or haplo-insufficient (+/−) PFKFB3 mice which were subsequently immortalized and transformed with human telomerase (ht), large T antigen (LT), and oncogenic H-ras^v12. Cell numbers (expressed as % of cell numbers of control cells) for transformed wild type (+/+) cells are shown in solid bars and numbers for transformed haplo-insufficient (+/−) cells are shown in striped bars. As indicated at the bottom of the graph, cells were incubated with vehicle or increasing amounts of 3PO (5, 10, 20, 30, 40, or 60 μM). Viable cells were counted after 48 hours. The bars represent the mean±STD of triplicate values from a representative experiment. * p-value<0.01 represents statistical difference between vehicle control and 3PO treated samples.
Cells were collected 48 hours post-treatment, and cell number and viability were determined by trypan blue exclusion. IC50 values were calculated as the compound 1 concentration needed for 50% of vehicle treated cell growth.
One of the most difficult challenges of new anti-neoplastic therapies is in situ target validation. To address this question, two different cell lines with varying levels of PFKFB3 expression were studied. […]

Q: Which results are given for `O=C(/C=C/c1cccnc1)c1ccncc1` [Compound 1, 3-(3-pyridinyl)-1-(4-pyridinyl)-2-propen-1-one]?
A: IC50 [1]: 3.2 µM; IC50 [2]: 24 µM; IC50 [3]: 24 µM; IC50 [4]: 15 µM; IC50 [5]: 26 µM
